Columns and labels:
[1] = test system: excessive sweating; conditions: patient 3: topical application (1% pads and 1% spray)
[2] = test system: hyperhidrosis and gustatory sweating; conditions: cited from earlier work
[3] = Hay 1982; roll-on solution, distilled water; concentrations above 2%; cited from earlier work

Which side effects [1] does the source give for `C[N+]1(C)CCC(OC(=O)C(O)(c2ccccc2)C2CCCC2)C1` (stereo not shown) [glycopyrrolate] here?
The side effects was “not experienced any side effects”.

What about the “efficacy of topical concentration” value ([2]; 0.1% concentration, Hays 1978) of the same compound?
The value was “ineffective”.

And the “efficacy of solution versus cream” value ([2]; Hay 1982, 2 & 4% HEB cream base)?
Its value is “Solution worked better than”.

What about the relief of sweating ([2]; May 1989, 0.5 & 2.0% roll-on, 2.0% cream, almost all patients) of the same compound?
Its relief of sweating is “total or partial relief. Placebo”.

And the efficacy ([2]; Seukeran 1998, 0.50% aqueous solution)?
Its efficacy is “Worked well”.

And the “concentration after which mild side effects begin to present themselves” value ([2]; topical, Hays 1978)?
The value was over 4%.

What about the crystallisation from solution [3] of the same compound?
The crystallisation from solution was “Glycopyrrolate crystalized out”.

From patent US9034368B2 (PUREPHARM INC., priority 2002, dated 2015)
